Source: BindingDB's records for doi:10.1016/j.ejmech.2022.114684 (Shanghai Institute of Materia Medica, 2022)

biological target: T1, Transcriptional coactivator YAP1 (Homo sapiens, UniProt P46937); experiment: Inhibition of YAP in HEK293T cells incubated for 24 hrs by Promega Dual-Luciferase Reporter Assay
T1 sequence (P46937 whole entry): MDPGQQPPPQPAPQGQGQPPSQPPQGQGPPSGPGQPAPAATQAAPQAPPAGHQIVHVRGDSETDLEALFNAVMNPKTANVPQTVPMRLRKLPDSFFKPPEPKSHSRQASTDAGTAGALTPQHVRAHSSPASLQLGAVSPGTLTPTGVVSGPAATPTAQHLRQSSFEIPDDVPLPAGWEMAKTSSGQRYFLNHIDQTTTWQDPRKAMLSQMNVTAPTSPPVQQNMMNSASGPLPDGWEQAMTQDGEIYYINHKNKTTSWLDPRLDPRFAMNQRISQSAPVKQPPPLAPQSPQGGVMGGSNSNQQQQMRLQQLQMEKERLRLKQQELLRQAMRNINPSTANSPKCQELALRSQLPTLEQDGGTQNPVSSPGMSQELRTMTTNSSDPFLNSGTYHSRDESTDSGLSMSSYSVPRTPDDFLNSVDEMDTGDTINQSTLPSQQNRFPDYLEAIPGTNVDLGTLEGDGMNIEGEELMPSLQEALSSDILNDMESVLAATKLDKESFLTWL

IC50 [nM] | Compound
< 100 | CS(=O)(=O)NC(=O)c1ccc2c(Oc3ccc(C(F)(F)F)cc3)cccc2c1 [N-(methylsulfonyl)-5-(4-(trifluoromethyl)phenoxy)-2-naphthamide]
< 100 | N#CCNC(=O)c1ccc2c(Oc3ccc(C(F)(F)F)cc3)cccc2c1 [N-(cyanomethyl)-5-(4-(trifluoromethyl)phenoxy)-2-naphthamid]
< 100 | CC(C)NC(=O)c1ccc2c(Oc3cccc(Cl)c3)cccc2c1 [5-(3-chlorophenoxy)-N-isopropyl-2-naphthamide]

biological target: T1, Transcriptional coactivator YAP1; experiment: Inhibition of YAP (unknown origin) incubated for 24 hrs by Promega Dual-Luciferase Reporter Assay

IC50 [nM] | Compound
1 | CNS(=O)(=O)c1ccc(Nc2ccc(C(F)(F)F)cc2)c(-c2cn(C)cn2)c1
391 | CC(NC(=O)c1cc2nc(N(C)C)n(-c3ccc(Br)cc3)c2s1)c1ccccn1 (stereo unspecified)
454 | COC(=O)c1cc(S(N)(=O)=O)ccc1NC1CCCCC1
